Results published in ChEMBL document CHEMBL1146651, “Selective urokinase-type plasminogen activator (uPA) inhibitors. Part 3: 1-isoquinolinylguanidines” (Bioorg Med Chem Lett, 2004).

What was measured:
Plasminogen [1] = target: T1, Plasminogen (Homo sapiens, UniProt P00747); assay: Inhibitory activity against human plasmin was evaluated using chromozym-PL as substrate at 100 mM
[2] = target: T2, Tissue-type plasminogen activator (Homo sapiens, UniProt P00750); assay: Inhibitory activity against human tissue type plasminogen activator using S-2444
Target sequence in this assay (P00750 whole entry): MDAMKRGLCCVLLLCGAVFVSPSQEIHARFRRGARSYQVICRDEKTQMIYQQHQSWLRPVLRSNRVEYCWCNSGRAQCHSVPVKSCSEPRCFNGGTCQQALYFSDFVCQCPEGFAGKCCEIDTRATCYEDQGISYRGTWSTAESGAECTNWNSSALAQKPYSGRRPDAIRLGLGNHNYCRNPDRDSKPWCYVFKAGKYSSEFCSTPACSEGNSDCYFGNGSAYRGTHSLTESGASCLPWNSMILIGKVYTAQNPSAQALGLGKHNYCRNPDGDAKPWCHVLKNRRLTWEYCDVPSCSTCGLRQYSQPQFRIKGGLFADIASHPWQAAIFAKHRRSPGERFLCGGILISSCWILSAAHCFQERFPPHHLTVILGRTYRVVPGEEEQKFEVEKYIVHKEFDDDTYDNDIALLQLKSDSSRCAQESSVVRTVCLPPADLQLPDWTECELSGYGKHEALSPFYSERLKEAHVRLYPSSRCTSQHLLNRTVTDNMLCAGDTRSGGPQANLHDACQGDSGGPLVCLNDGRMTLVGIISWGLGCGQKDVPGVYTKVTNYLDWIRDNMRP

[3] = target: Urokinase-type plasminogen activator (Homo sapiens, UniProt P00749)
[4] = target: T2, Tissue-type plasminogen activator; assay: Inhibitory activity against human tissue type plasminogen activator was evaluated using S-2444 as substrate and tissue plasminogen activator stimulator at […]
Target sequence in this assay (P00750 36-562 limits assumed): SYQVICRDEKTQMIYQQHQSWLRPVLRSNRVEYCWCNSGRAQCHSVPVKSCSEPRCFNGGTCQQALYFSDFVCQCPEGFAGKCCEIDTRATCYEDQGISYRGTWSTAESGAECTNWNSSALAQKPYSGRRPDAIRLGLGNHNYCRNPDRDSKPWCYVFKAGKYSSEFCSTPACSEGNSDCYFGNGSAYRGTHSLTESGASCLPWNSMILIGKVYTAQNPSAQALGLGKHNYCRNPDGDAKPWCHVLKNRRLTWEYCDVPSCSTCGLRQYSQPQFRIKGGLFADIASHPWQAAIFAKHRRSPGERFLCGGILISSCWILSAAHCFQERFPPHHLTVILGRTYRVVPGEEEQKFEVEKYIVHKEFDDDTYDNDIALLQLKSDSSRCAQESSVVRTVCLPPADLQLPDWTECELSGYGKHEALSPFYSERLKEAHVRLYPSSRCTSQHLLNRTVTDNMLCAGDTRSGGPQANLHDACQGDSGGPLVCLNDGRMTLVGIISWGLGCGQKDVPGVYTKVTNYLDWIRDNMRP

Plasminogen [5] = target: T1, Plasminogen; assay: (§1) Inhibitory activity against human plasmin was evaluated using chromozym-PL as substrate at 1 mM
[6] = target: T2, Tissue-type plasminogen activator; assay: Inhibitory activity against human tissue plasminogen activator was evaluated using S-2444 as substrate and tissue plasminogen activator stimulator at 1 mM
Target sequence in this assay (P00750 36-562 limits assumed): as above

Plasminogen [7] = target: T1, Plasminogen; assay: Inhibition of human plasmin activity with chromozym-PL as substrate
Plasminogen [8] = target: T1, Plasminogen; assay: Inhibitory activity against human plasmin was evaluated using chromozym-PL as substrate at 10 uM
Plasminogen [9] = target: T1, Plasminogen; assay: Inhibitory activity of 3 uM compound against plasmin was evaluated using chromozym-PL as substrate
Plasminogen [10] = target: T1, Plasminogen; assay: as §1; remark: listed apart in the source
Plasminogen [11] = target: T1, Plasminogen; assay: Inhibitory activity of 30 uM compound against plasmin was evaluated using chromozym-PL as substrate
Plasminogen [12] = target: T1, Plasminogen; assay: Inhibitory activity against human plasmin was evaluated using chromozym-PL as substrate at 300 mM
[13] = target: T2, Tissue-type plasminogen activator; assay: Inhibitory activity against human tissue plasminogen activator was evaluated using S-2444 as substrate and tissue plasminogen activator stimulator at 30 uM
Target sequence in this assay (P00750 36-562 limits assumed): as above

T1 sequence (P00747 97-580 limits assumed): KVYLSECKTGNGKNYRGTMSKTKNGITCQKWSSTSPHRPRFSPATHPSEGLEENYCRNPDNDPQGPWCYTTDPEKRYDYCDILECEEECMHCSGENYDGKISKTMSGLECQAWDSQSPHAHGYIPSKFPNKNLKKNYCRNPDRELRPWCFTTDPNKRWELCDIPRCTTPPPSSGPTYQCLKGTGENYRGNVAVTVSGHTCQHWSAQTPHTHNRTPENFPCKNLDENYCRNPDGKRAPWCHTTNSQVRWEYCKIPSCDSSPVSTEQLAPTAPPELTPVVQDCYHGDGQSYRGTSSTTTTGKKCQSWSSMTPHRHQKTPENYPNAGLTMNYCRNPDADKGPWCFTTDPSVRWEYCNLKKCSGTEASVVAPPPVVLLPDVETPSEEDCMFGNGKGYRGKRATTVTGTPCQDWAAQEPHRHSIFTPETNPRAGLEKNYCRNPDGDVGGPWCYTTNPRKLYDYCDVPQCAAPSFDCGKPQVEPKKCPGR
T1 sequence (P00747 581-810 limits assumed): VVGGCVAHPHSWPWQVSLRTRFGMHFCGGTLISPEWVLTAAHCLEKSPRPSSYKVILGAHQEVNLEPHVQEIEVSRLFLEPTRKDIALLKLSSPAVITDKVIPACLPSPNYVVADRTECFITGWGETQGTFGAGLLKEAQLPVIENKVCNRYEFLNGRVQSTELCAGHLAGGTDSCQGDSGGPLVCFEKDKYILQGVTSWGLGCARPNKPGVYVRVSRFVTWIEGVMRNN

| SMILES | Ki [2] | Ki [3] | inhibition [4] | Ki (Plasminogen [7]) | also measured |
| --- | --- | --- | --- | --- | --- |
| N=C(N)Nc1nccc2ccc(OCc3ccccc3)cc12 | 13 µM | 4.8 µM |  |  | inhibition (Plasminogen [1]): < 50% |
| N=C(N)Nc1nccc2ccc(CO)cc12 |  | 1.3 µM | < 50% |  | inhibition (Plasminogen [1]): 55% |
| N=C(N)Nc1ncc(Cl)c2ccccc12 |  |  |  |  | inhibition (Plasminogen [5]): < 50% |
| N=C(N)Nc1nccc2cc(Br)ccc12 |  |  |  |  | inhibition [6]: < 50% |
| NC(N)=Nc1nccc2ccc(-c3ccccc3)cc12 | 124 µM | 0.4 µM |  | 47.5 µM |  |
| N=C(N)Nc1ncc(Br)c2ccccc12 | 159 µM |  |  |  | inhibition (Plasminogen [5]): < 50% |
| N#Cc1ccc(-c2ccc3c(Cl)cnc(N=C(N)N)c3c2)cc1 |  | 0.49 µM |  |  |  |
| N#Cc1ccc(-c2ccc3c(Cl)cnc(NC(=N)N)c3c2)cc1 |  |  | < 50% |  | inhibition (Plasminogen [8]): 82% |
| NC(N)=Nc1nccc2c(OCc3ccccc3)cccc12 | 13 µM |  |  |  |  |
| N=C(N)Nc1ccc2ccccc2n1 |  |  |  |  | inhibition (Plasminogen [5]): < 50% |
| N=C(N)Nc1nccc2ccc(-c3ccc4c(c3)OCO4)cc12 |  |  |  | 12 µM | inhibition [6]: 55% |
| N=C(N)Nc1nccc2c(OCc3ccccc3)cccc12 |  |  |  |  | inhibition (Plasminogen [1]): < 50% |
| N=C(N)Nc1ncc(Cl)c2ccc(-c3ccc(C(=O)O)cc3)cc12 |  | 0.082 µM | < 50% |  | inhibition (Plasminogen [9]): 65% |
| N#Cc1cccc(-c2ccc3c(Cl)cnc(N=C(N)N)c3c2)c1 |  | 0.3 µM |  | 4.1 µM |  |
| N=C(N)Nc1ccccn1 |  | 29 µM |  |  |  |
| NC(N)=Nc1nccc2c(-c3ccccc3)cccc12 | 124 µM | > 100 µM |  | 47.5 µM |  |
| NC(N)=Nc1ncc(Cl)c2ccccc12 | 128 µM | 0.83 µM |  |  |  |
| COc1ccc(C(=O)O)cc1-c1ccc2c(Cl)cnc(N=C(N)N)c2c1 |  | 0.009 µM | < 50% | 4.75 µM |  |
| N=C(N)Nc1nccc2ccc(C(=O)O)cc12 |  |  | < 50% |  | inhibition (Plasminogen [1]): < 50% |
| N=C(N)Nc1ncc(Cl)c2ccc(-c3ccc4c(c3)OCO4)cc12 |  | 0.1 µM | < 50% | 3.2 µM |  |

| SMILES | Ki [2] | Ki [3] | inhibition [4] | Ki (Plasminogen [7]) | also measured |
| --- | --- | --- | --- | --- | --- |
| Cc1ccc(-c2ccc3c(Cl)cnc(N=C(N)N)c3c2)cc1 | 19 µM | 0.13 µM |  | 7.3 µM |  |
| NC(N)=Nc1nccc2cc(Br)ccc12 |  |  |  | 131 µM |  |
| N=C(N)Nc1nccc2c(Br)cccc12 | 140 µM | 4.93 µM |  | 238 µM |  |
| COc1ccc(-c2ccc3c(Cl)cnc(N=C(N)N)c3c2)cc1 |  |  | < 50% | 3 µM |  |
| NC(N)=Nc1ncc(Cl)c2ccc(-c3cccc(C(=O)O)c3)cc12 |  | 0.037 µM |  |  |  |
| N=C(N)Nc1ncc(Cl)c2ccc(-c3cccc(C(=O)O)c3)cc12 |  |  | < 50% |  | inhibition (Plasminogen [8]): < 50% |
| NC(N)=Nc1nccc2ccccc12 | 126 µM | 1.92 µM |  |  | Ki (Plasminogen [10]): 68 µM |
| COc1ccc(C#N)cc1-c1ccc2c(Cl)cnc(N=C(N)N)c2c1 |  | 0.18 µM | < 50% |  | inhibition (Plasminogen [11]): < 50% |
| COc1cccc2c(N=C(N)N)nccc12 |  | 3.62 µM |  |  | inhibition (Plasminogen [12]): < 50%; inhibition [6]: < 50% |
| N#Cc1cccc(-c2ccc3c(Cl)cnc(NC(=N)N)c3c2)c1 |  |  | < 50% |  |  |
| NC(N)=Nc1nccc2ccc(Br)cc12 | 95.1 µM |  |  | 50.8 µM |  |
| COc1cccc(-c2ccc3c(Cl)cnc(N=C(N)N)c3c2)c1 |  | 0.083 µM | < 50% |  |  |
| N=C(N)Nc1cc2ccccc2cn1 |  |  |  |  | inhibition (Plasminogen [5]): < 50%; inhibition [6]: < 50% |
| CC(O)c1ccc2ccnc(N=C(N)N)c2c1 (configuration not stated) |  | 0.64 µM | < 50% | 24 µM |  |
| COc1ccccc1-c1ccc2c(Cl)cnc(N=C(N)N)c2c1 | 15.5 µM |  |  | 14.5 µM |  |
| COc1ccc2ccnc(N=C(N)N)c2c1 |  | 0.66 µM | < 50% |  | inhibition (Plasminogen [1]): < 50% |
| NC(N)=Nc1ccc2ccccc2n1 | 367 µM | 209 µM |  |  |  |
| N=C(N)Nc1ncc(Cl)c2ccc(-c3ccccc3)cc12 |  |  |  |  | inhibition (Plasminogen [11]): < 50%; inhibition [13]: < 50% |
| Cc1cnc(N=C(N)N)c2ccccc12 |  |  | < 50% |  | inhibition (Plasminogen [1]): < 50% |
